Assay results from patent US9802941B2, “Compounds and methods for inhibiting histone demethylases” (Gilead Sciences, Inc., priority 2014, dated 2017).
Where two headings read alike, the source gives them in different places.

Legend:
Assay type in all cases: biochemical
KDM5B (PLU-1) = target: T1, KDM5B (PLU-1) (Homo sapiens, UniProt Q9UGL1); experiment: Histone lysine demethylase AlphaLISA assay, KDM5B
T1 construct: BRIC; 1-809; E. coli; host or cells: E. coli
T1 sequence (Q9UGL1 1-809): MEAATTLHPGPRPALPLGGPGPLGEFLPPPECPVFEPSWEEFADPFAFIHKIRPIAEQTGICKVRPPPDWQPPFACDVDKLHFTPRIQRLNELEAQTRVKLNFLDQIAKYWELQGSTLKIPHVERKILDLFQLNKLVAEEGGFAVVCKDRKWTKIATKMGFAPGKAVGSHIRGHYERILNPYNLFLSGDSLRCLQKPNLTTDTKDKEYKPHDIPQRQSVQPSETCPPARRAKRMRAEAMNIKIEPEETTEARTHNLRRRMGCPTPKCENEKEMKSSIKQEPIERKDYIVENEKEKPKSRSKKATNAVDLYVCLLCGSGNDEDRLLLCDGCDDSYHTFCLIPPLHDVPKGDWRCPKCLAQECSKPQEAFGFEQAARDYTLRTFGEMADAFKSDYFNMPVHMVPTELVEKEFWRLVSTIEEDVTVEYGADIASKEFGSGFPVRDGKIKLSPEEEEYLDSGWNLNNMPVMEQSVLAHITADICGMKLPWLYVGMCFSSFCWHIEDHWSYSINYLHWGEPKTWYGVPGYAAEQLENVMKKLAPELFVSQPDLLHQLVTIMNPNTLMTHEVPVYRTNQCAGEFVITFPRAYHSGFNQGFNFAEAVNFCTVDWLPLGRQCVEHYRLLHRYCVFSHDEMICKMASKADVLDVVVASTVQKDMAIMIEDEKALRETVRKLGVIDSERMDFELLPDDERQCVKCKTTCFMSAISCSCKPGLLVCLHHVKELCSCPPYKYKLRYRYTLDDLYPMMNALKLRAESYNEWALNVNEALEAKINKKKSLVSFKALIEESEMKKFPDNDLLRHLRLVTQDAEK
How it was run: (§1)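 Compounds preincubated 10 min with each demethylase in Hepes buffer (pH 7.4-8.0) containing Tween-20, 0.1% BSA and 5 μM Fe(II); substrate then added, room-temperature reaction. Read-out by AlphaLISA acceptor and streptavidin donor beads after incubation in the dark.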

KDM4C (JMJD2C) = target: T2, KDM4C (JMJD2C) (Homo sapiens, UniProt Q9H3R0); experiment: Histone lysine demethylase AlphaLISA assay, KDM4C
T2 construct: KDM4C; BRIC, Denmark; 1-349; E. coli; host or cells: E. coli
T2 sequence (Q9H3R0 1-349): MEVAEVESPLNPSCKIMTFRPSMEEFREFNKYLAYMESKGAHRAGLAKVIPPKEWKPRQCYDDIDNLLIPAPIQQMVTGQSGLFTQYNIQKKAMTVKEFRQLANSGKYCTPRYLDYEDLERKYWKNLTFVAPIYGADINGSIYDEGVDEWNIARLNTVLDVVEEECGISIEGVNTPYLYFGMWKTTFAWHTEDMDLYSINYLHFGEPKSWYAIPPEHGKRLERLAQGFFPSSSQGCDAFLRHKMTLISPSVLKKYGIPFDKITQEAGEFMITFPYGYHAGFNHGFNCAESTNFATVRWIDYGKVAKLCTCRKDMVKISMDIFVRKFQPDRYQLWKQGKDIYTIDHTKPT
How it was run: as §1

PHF8 (KDM7) = target: T3, PHF8 (KDM7) (Homo sapiens, UniProt Q9UPP1); experiment: Histone lysine demethylase AlphaLISA assay, PHF8
T3 construct: KDM7 (PHF8); BRIC; 1-1322; Bac
How it was run: as §1

KDM2B (FBXL10) = target: T4, KDM2B (FBXL10) (Homo sapiens, UniProt Q8NHM5); experiment: Histone lysine demethylase AlphaLISA assay, KDM2B
T4 construct: KDM2B; BPS,; 1-650; Bac; purchased BPS Bioscience, US; host or cells: baculovirus system
T4 sequence (Q8NHM5 1-650): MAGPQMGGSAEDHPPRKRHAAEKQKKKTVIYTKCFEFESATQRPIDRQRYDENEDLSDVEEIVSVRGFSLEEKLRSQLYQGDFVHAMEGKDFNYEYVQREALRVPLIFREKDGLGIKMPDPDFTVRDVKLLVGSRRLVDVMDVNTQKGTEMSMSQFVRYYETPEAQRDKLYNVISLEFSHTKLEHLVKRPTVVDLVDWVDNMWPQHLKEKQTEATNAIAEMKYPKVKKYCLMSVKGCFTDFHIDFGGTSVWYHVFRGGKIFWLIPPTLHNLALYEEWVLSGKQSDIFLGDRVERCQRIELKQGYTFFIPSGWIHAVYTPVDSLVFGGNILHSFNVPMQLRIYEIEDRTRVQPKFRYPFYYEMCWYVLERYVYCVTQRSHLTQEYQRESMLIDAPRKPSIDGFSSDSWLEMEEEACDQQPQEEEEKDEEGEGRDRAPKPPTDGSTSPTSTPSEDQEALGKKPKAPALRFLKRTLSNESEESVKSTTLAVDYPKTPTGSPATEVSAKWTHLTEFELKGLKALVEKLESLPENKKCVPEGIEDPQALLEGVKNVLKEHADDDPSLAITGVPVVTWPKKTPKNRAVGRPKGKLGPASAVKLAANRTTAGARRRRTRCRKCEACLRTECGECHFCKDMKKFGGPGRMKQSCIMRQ
How it was run: as §1

[1] = AlphaLISA assay, read-out: HDME Inhibition KDM5B (IC50)
[2] = AlphaLISA, in vitro, read-out: HDME Inhibition KDM5B
[3] = AlphaLISA assay, read-out: HDME Inhibition KDM4C (IC50)
[4] = AlphaLISA, in vitro, read-out: HDME Inhibition KDM4C
[5] = AlphaLISA, in vitro, read-out: HDME Inhibition PHF8
[6] = AlphaLISA, in vitro, read-out: HDME Inhibition KDM2B
[7] = AlphaLISA assay, read-out: HDME Inhibition PHF8 (IC50)
[8] = AlphaLISA assay, read-out: HDME Inhibition KDM2B (IC50)

T3 sequence (Q9UPP1 37-440 limits assumed): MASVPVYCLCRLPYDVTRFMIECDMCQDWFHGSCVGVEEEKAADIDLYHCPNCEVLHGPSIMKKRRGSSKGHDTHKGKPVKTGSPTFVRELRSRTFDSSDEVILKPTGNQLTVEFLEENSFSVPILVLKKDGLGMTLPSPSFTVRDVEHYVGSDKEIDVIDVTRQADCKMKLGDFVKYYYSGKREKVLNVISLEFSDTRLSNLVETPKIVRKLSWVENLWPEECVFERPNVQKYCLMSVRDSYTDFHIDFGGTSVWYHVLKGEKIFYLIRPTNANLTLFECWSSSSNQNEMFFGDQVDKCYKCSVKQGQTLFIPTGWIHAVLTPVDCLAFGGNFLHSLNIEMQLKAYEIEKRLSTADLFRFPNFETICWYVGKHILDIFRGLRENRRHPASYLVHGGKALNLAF

Row | Structure (SMILES) | IC50 (KDM5B (PLU-1); [1]) [µM] | IC50 (KDM5B (PLU-1); [2]) [µM] | IC50 (KDM4C (JMJD2C); [3]) [µM] | IC50 (KDM4C (JMJD2C); [4]) [µM] | IC50 (PHF8 (KDM7); [5]) [µM] | IC50 (KDM2B (FBXL10); [6]) [µM] | IC50 (PHF8 (KDM7); [7]) [µM] | IC50 (KDM2B (FBXL10); [8]) [µM] | IC50 (KDM5B (PLU-1)) [µM]
1 | Cc1cc(C(=O)O)cc(CNCc2nncn2CCc2cc(Cl)cc(Cl)c2)n1 [Compound 51, 2-{[({4-[2-(3,5-dichlorophenyl)ethyl]-4H-1,2,4-triazol-3-yl}methyl)amino]methyl}-6-methylpyridine-4-carboxylic acid] | > 10 | > 10 | > 10 | > 10 | 3.88 | 2.83 | – | – | –
2 | NCc1cc(C(=O)O)cc(CN)n1 [Compound 110, 2,6-bis(aminomethyl)pyridine-4-carboxylic acid] | > 10 | > 10 | > 10 | > 10 | > 10 | > 10 | > 10 | > 10 | –
3 | Cc1nnc(CNCc2cc(C(=O)O)cc(CO)n2)n1CCCC(C)C [Compound 70, 2-(hydroxymethyl)-6-[({[5-methyl-4-(4-methylpentyl)-4H-1,2,4-triazol-3-yl]methyl}amino)methyl]pyridine-4-carboxylic acid] | – | – | > 10 | > 10 | 1.75 | 0.485 | – | – | 0.559
4 | Cc1cc(C(=O)O)cc(CNCCc2nncn2Cc2ccc(C(F)(F)F)cc2)n1 [Compound 60, 2-methyl-6-({[2-(4-{[4-(trifluoromethyl)phenyl]methyl}-4H-1,2,4-triazol-3-yl)ethyl]amino}methyl)pyridine-4-carboxylic acid] | – | 0.526 | > 10 | > 10 | > 10 | 1.62 | > 10 | – | –
5 | CCN(CCN(C)C)C(=O)CNCc1cc(C(=O)O)cc(C)n1 [Compound 98, 2-{[({[2-(dimethylamino)ethyl](ethyl)carbamoyl}methyl)amino]methyl}-6-methylpyridine-4-carboxylic acid] | – | 0.008 | – | 1.67 | > 10 | 0.53 | > 10 | – | –
6 | O=C(O)c1cc(CO)nc(CNCc2nc(CO)cn2Cc2ccc(F)cc2)c1 [Compound 88, 2-{[({1-[(4-fluorophenyl)methyl]-4-(hydroxymethyl)-1H-imidazol-2-yl}methyl}amino]methyl}-6-(hydroxymethyl)pyridine-4-carboxylic acid] | – | – | – | 3.47 | 1.27 | 0.585 | – | – | 0.246
7 | CCc1nnc(CNCc2cc(C(=O)O)cc(CO)n2)n1CCCC(C)C [Compound 94, 2-[({[5-ethyl-4-(4-methylpentyl)-4H-1,2,4-triazol-3-yl]methyl}amino)methyl]-6-(hydroxymethyl)pyridine-4-carboxylic acid] | > 10 | > 10 | > 10 | > 10 | 2.03 | 0.047 | – | – | –
8 | Cc1ccc(OCCC(C)C)c(CCNCc2cc(C(=O)O)cc(C)n2)c1 [Compound 89, 2-methyl-6-[({2-[5-methyl-2-(3-methylbutoxy)phenyl]ethyl}amino)methyl]pyridine-4-carboxylic acid] | > 10 | > 10 | > 10 | > 10 | > 10 | 2.3 | > 10 | – | –

Continued, values first:

Row | IC50 (KDM5B (PLU-1); [1]) [µM] | IC50 (KDM5B (PLU-1); [2]) [µM] | IC50 (KDM4C (JMJD2C); [3]) [µM] | IC50 (KDM4C (JMJD2C); [4]) [µM] | IC50 (PHF8 (KDM7); [5]) [µM] | IC50 (KDM2B (FBXL10); [6]) [µM] | IC50 (PHF8 (KDM7); [7]) [µM] | IC50 (KDM2B (FBXL10); [8]) [µM] | IC50 (KDM5B (PLU-1)) [µM] | Structure (SMILES)
9 | > 10 | > 10 | > 10 | > 10 | 1.23 | 0.053 | – | – | – | COc1ccc(OCc2ccccc2)c(CNCc2cc(C(=O)O)cc(C)n2)n1 [Compound 92, 2-[({[3-(benzyloxy)-6-methoxypyridin-2-yl]methyl}amino)methyl]-6-methylpyridine-4-carboxylic acid]
10 | > 10 | > 10 | > 10 | > 10 | 1.81 | 0.061 | – | – | – | CC#CCC(c1ccc(F)cc1)n1ccnc1CNCc1cc(C(=O)O)cc(C)n1 (centres unmarked) [Compound 96, 2-{[({1-[1-(4-fluorophenyl)pent-3-yn-1-yl]-1H-imidazol-2-yl}methyl)amino]methyl}-6-methylpyridine-4-carboxylic acid]
11 | > 10 | > 10 | > 10 | > 10 | 2.38 | 2.01 | – | – | – | Cc1cc(C(=O)O)cc(CNCc2nnc(CN(C)C)n2Cc2ccc(F)cc2)n1 [Compound 44, 2-{[({5-[(dimethylamino)methyl]-4-[(4-fluorophenyl)methyl]-4H-1,2,4-triazol-3-yl}methyl)amino]methyl}-6-methylpyridine-4-carboxylic acid]
12 | > 10 | > 10 | > 10 | > 10 | 1.04 | 0.692 | – | – | – | Cc1cc(C(=O)O)cc(CNCc2ncc(CN(C)C)n2Cc2ccc(F)cc2)n1 [Compound 50, 2-{[({5-[(dimethylamino)methyl]-1-[(4-fluorophenyl)methyl]-1H-imidazol-2-yl}methyl)amino]methyl}-6-methylpyridine-4-carboxylic acid]
13 | > 10 | > 10 | > 10 | > 10 | > 10 | > 10 | > 10 | > 10 | – | Cc1cc(C(=O)O)cc(CNCc2nccn2Cc2cccc(CN)c2)n1 [Compound 48, 2-({[(1-{[3-(aminomethyl)phenyl]methyl}-1H-imidazol-2-yl)methyl]amino}methyl)-6-methylpyridine-4-carboxylic acid]
14 | > 10 | > 10 | > 10 | > 10 | 0.859 | 0.659 | – | – | – | C/C=C/c1cnc(CNCc2cc(C(=O)O)cc(C)n2)n1Cc1ccc(F)cc1 [Compound 42, 2-{[({1-[(4-fluorophenyl)methyl]-5-[(1E)-prop-1-en-1-yl]-1H-imidazol-2-yl}methyl)amino]methyl}-6-methylpyridine-4-carboxylic acid]
15 | > 10 | > 10 | > 10 | > 10 | > 10 | 0.308 | > 10 | – | – | CC(C)Cc1ccc(OCc2ccccc2)nc1CNCc1cc(C(=O)O)cc(CO)n1 [Compound 97, 2-[({[6-(benzyloxy)-3-(2-methylpropyl)pyridin-2-yl]methyl}amino)methyl]-6-(hydroxymethyl)pyridine-4-carboxylic acid]
